Data set [1] addresses T1, Cholinesterase (Homo sapiens, UniProt P06276). In words: Inhibition of human BChE using butyrylthiocholine iodide as substrate incubated for 20 mins followed by substrate addition by Ellman's method. On the technique in general: Ellman's reagent forms a yellow product with free thiols.
For data set [2], the target named is Acetylcholinesterase (Homo sapiens) (UniProt P22303). The data set can be described thus: Inhibition of human AChE using acetylthiocholine iodide as substrate at 10 uM incubated for 20 mins followed by substrate addition by Ellman's method relative to control.
A short description of data set [3]: Metal chelating activity assessed as compound-Cu2+ complex formation at ratio of 10:1 incubated for 2 mins followed by pyrocatechol violet addition and further incubated for 10 mins in dark by absorbance based assay. As to conditions: time 12.0 min.
The nature of data set [4]: Neurotoxicity in mouse HT-22 cells assessed as reduction in cell viability at 25 uM incubated for 24 hrs by MTT assay. The following applies: ht-22, 24 h. The data set is classed as cell-based. In general terms: Tetrazolium assays rely on reduction of a dye to a coloured formazan, in cell work by metabolically active cells.
For data set [5], the system named is HT-22. The data set can be described thus: Neuroprotective activity against glutamate induced-oxidative stress in mouse HT-22 cells assessed as cell viability at 10 uM incubated for 24 hrs by MTT assay. It is filed as functional, cell-based.
Data set [6] deals with N9. The data set can be described thus: Immunomodulatory activity in mouse N9 microglial cells assessed as reduction in LPS-induced IL-1beta release at 0.1 to 5 uM incubated for 24 hrs by Western blot analysis. It is filed as functional, cell-based. The following applies: dose 0.1-5 µM. In general terms: In western blotting, separated proteins are transferred to a membrane and probed.

For data set [7], the system named is N9. In words: Immunomodulatory activity in mouse N9 microglial cells assessed as increase in LPS-induced TREM2 expression at 2.5 to 5 uM incubated for 24 hrs by Western blot analysis. It is filed as functional, cell-based. As to conditions: dose 2.5-5 µM.
Data set [8] can be described thus: Toxicity in Swiss mouse assessed as change in weight gain at 0.1 to 3 mg/kg, ip administered for 7 days. The data set is classed as organism-based. The following applies: in vivo, 168 h, dose 0.1-3 mg/kg, time 7 day.
The nature of data set [9]: Toxicity in Swiss mouse assessed as change in normal behaviour at 0.1 to 3 mg/kg, ip administered for 7 days. As to conditions: in vivo, 168 h, dose 0.1-3 mg/kg, time 7 day. The data set is classed as organism-based.
In data set [10] the test system is Mus musculus. The data set can be described thus: Anti-alzheimer activity against amyloid beta 25-35 induced learning impairments in Swiss mouse assessed as increase in spontaneous alteration performance by measuring total number of arm entries at 1 mg/kg, ip administered once daily for 7 days and measured on day 8 by Y-maze test. As to conditions: time 7.0 day. It is filed as functional, organism-based.

The subject of data set [11] is Mus musculus. In words: Anti-alzheimer activity against amyloid beta 25-35 induced learning impairments in Swiss mouse assessed as latency to enter dark compartment at 0.3 mg/kg, ip administered once daily for 7 days and measured on day 8 by passive avoidance test. The following applies: time 7.0 day. The data set is classed as functional, organism-based.
Data set [12] can be described thus: Metal chelating activity assessed as Fe2+ -ferrozoine complex formation at ratio of 10:1 incubated for 2 mins followed by ferrozine addition and further incubated for 10 mins by absorbance based assay. As to conditions: time 12.0 min.
Data set [13] concerns N9. The data set can be described thus: Immunomodulatory activity in mouse N9 microglial cells assessed as reduction in LPS-induced iNOS expression at 0.1 to 5 uM incubated for 24 hrs by Western blot analysis. It is filed as functional, cell-based. The following applies: dose 0.1-5 µM.
Data set [14] deals with N9. In words: Immunomodulatory activity in mouse N9 microglial cells assessed as reduction in LPS-induced nitrite accumulation at 0.1 to 5 uM incubated for 24 hrs by Griess reagent based colorimetry assay. The following applies: dose 0.1-5 µM. It is filed as functional, cell-based.
In data set [15] the target is T1, Cholinesterase.
Description: Binding affinity to human serum BChE assessed as half life
Data set [16] relates to HT-22. In words: Neuroprotective activity against glutamate induced-oxidative stress in mouse HT-22 cells assessed as cell viability at 1 to 25 uM incubated for 24 hrs by MTT assay. The data set is classed as functional, cell-based. The following applies: dose 1-25 µM.
For data set [17], the system named is N9. In words: Immunomodulatory activity in mouse N9 microglial cells assessed as reduction in LPS-induced nitrite accumulation at 2.5 to 5 uM incubated for 24 hrs by Griess reagent based colorimetry assay. The data set is classed as functional, cell-based. The following applies: dose 2.5-5 µM.
The subject of data set [18] is N9. The data set can be described thus: Immunomodulatory activity in mouse N9 microglial cells assessed as reduction in LPS-induced IL-1beta release at 2.5 to 5 uM incubated for 24 hrs by Western blot analysis. The data set is classed as functional, cell-based. The following applies: dose 2.5-5 µM.
For data set [19], the system named is N9. The data set can be described thus: Immunomodulatory activity in mouse N9 microglial cells assessed as reduction in LPS-induced iNOS expression at 2.5 to 5 uM incubated for 24 hrs by Western blot analysis. It is filed as functional, cell-based. The following applies: dose 2.5-5 µM.
For data set [20], the system named is HT-22. The data set can be described thus: Neuroprotective activity against glutamate induced-oxidative stress in mouse HT-22 cells assessed as cell viability at 5 uM incubated for 24 hrs by MTT assay. It is filed as functional, cell-based.
For data set [21], the system named is N9. In words: Immunomodulatory activity in mouse N9 microglial cells assessed as reduction in LPS-induced IL-1beta release at 0.5 to 5 uM incubated for 24 hrs by Western blot analysis. The data set is classed as functional, cell-based. The following applies: dose 0.5-5 µM.
The test system of data set [22] is Mus musculus. The data set can be described thus: Anti-alzheimer activity against amyloid beta 25-35 induced learning impairments in Swiss mouse assessed as increase in spontaneous alteration performance by measuring total number of arm entries at 0.3 to 1 mg/kg, ip administered once daily for 7 days and measured on day 8 by Y-maze test. It is filed as functional, organism-based. As to conditions: dose 0.3-1 mg/kg, time 7.0 day.

The subject of data set [23] is Mus musculus. In words: Anti-alzheimer activity against amyloid beta 25-35 induced learning impairments in Swiss mouse assessed as latency to enter dark compartment at 0.1 mg/kg, ip administered once daily for 7 days and measured on day 8 by passive avoidance test. The data set is classed as functional, organism-based. As to conditions: time 7.0 day.
The test system of data set [24] is Mus musculus. In words: Anti-alzheimer activity against amyloid beta 25-35 induced learning impairments in wild type 129 SV mouse assessed as increase in spontaneous alternation performance by measuring total number of arm entries at 0.3 mg/kg, ip administered once daily for 7 days and measured on day 8 by Y-maze test. The following applies: time 7.0 day. The data set is classed as functional, organism-based.

Data set [25] relates to Mus musculus. In words: Anti-alzheimer activity against amyloid beta 25-35 induced learning impairments in wild type 129 SV mouse assessed as increase in latency to enter dark compartment at 0.3 mg/kg, ip administered once daily for 7 days and measured on day 9 by passive avoidance test. The data set is classed as functional, organism-based. As to conditions: time 7.0 day.

Data set [26] relates to Mus musculus. The data set can be described thus: Anti-alzheimer activity against amyloid beta 25-35 induced learning impairments in BChE KO mouse assessed as memory deficit in alternation performance by measuring total number of arm entries at 0.3 mg/kg, ip qd administered for 7 days and measured on day 8 by Y-maze test. The data set is classed as functional, organism-based. The following applies: time 7.0 day.

Data set [27] deals with Mus musculus. The data set can be described thus: Anti-alzheimer activity against amyloid beta 25-35 induced learning impairments in BChE KO mouse assessed as increase in latency to enter dark compartment at 0.3 mg/kg, ip administered once daily for 7 days and measured on day 9 by passive avoidance test. The data set is classed as functional, organism-based. The following applies: time 7.0 day.

Here are results for eleven compounds from ChEMBL document CHEMBL5032507, “Selective Pseudo-irreversible Butyrylcholinesterase Inhibitors Transferring Antioxidant Moieties to the Enzyme Show Pronounced Neuroprotective Efficacy In Vitro and In Vivo in an Alzheimer's Disease Mouse Model” (J Med Chem, 2021).

Calls of active or inactive are those of the source. The calls are words filed in the database; no cut-off is given here.

T1 sequence (P06276 whole entry): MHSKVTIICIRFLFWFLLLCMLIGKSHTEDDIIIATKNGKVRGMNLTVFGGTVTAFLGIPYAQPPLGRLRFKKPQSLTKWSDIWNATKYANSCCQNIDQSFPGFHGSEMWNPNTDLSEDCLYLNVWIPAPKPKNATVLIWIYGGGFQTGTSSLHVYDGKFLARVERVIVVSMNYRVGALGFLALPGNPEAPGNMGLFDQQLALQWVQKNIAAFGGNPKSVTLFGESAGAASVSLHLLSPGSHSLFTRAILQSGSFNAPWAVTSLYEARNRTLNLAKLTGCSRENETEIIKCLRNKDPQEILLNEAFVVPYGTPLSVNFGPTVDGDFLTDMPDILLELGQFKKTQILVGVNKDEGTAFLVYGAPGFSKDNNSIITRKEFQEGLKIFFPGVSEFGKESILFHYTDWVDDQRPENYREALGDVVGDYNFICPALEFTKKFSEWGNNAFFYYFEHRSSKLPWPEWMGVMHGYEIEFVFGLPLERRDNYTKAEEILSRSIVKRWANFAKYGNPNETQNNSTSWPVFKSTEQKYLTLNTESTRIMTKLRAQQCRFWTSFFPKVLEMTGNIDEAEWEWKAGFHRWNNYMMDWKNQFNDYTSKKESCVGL
Sequence of Acetylcholinesterase (Homo sapiens) (P22303 whole entry): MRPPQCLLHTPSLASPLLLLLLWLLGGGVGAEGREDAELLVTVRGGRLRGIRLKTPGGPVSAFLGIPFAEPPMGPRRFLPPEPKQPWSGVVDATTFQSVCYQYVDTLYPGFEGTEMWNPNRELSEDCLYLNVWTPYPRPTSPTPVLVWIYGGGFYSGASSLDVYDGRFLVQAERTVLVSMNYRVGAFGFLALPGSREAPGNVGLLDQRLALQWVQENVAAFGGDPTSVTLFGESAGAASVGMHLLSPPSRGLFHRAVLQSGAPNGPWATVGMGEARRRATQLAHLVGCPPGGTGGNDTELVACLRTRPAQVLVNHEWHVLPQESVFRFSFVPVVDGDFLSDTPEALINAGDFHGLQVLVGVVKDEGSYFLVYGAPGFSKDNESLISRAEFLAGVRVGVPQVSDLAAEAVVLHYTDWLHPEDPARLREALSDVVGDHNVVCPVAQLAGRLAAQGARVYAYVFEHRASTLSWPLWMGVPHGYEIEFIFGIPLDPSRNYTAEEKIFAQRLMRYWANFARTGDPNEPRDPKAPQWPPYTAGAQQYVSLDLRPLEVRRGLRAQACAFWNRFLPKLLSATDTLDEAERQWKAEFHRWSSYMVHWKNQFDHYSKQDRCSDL

The inhibition is the change of the read-out against control, counted positive when it falls. For `Cc1c(C)c2c(c(C)c1O)CCC(C)(C(=O)NCCCCCCNC(=O)Oc1ccc3c(c1)CN1CCc4ccccc4C1N3C)O2` (stereo not given), the figures for the IC50 in [1] (read-out: IC50) and in data set [1] (read-out: pIC50 (converted)) were 255 nM and 9330 nM, respectively. In [2], this compound gave an inhibition of 24.1%.
As to `COc1ccc2[nH]cc(CCNC(=O)CCNC(=O)Oc3ccc4c(c3)CN3CCc5ccccc5C3N4C)c2c1` (stereo not given), in data set [1] (read-out: IC50), the IC50 was 482 nM. In data set [2], this compound displayed an inhibition of 2.3%.
In the case of `COc1cc(/C=C/C(=O)NCCCCNC(=O)Oc2ccc3c(c2)CN2CCc4ccccc4C2N3C)ccc1O` (stereo not given), the values for the IC50 in data set [1] (read-out: IC50) and in [1] (read-out: pIC50 (converted)) were 155 nM and 115 nM, respectively. The same compound displayed an inhibition in data set [2] of 7.7%. Further, the result in data set [3] and in [12] was inactive. For the same compound, the Activity result in data set [4], in data set [8] and in [9] was “Non-Toxic” throughout. Also, the result in data set [5], in data set [6], in [7], in [10], in [11] and in data set [13] was Active. Besides, the outcome in data set [14] was Active. The same compound gave a T1/2 in data set [15] of 2.4 h.
Take `COc1cc(/C=C/C(=O)NCCCCCCNC(=O)Oc2ccc3c(c2)CN2CCc4ccccc4C2N3C)ccc1O` (stereo not given): in data set [1] (read-out: IC50), the IC50 was determined as 166 nM. The inhibition in [2] was found to be 20%.
In the case of `CN1c2ccc(OC(=O)NCCCCCCNC(=O)/C=C/c3ccccc3)cc2CN2CCc3ccccc3C21` (stereo not given), the IC50 in data set [1] (read-out: IC50) amounted to 442 nM. In addition, the inhibition in [2] is 37.5%.
On to `COc1ccc2[nH]cc(CCNC(=O)CCCCNC(=O)Oc3ccc4c(c3)CN3CCc5ccccc5C3N4C)c2c1` (stereo not given), for which the IC50 in [1] (read-out: IC50) was determined as 127 nM. For the same compound, the inhibition in data set [2] worked out at 15%.
Turning to `COc1cc(/C=C/C(=O)O)ccc1O` [FERULATE], the result in data set [3], in data set [16], in data set [17], in [18], in data set [19] and in [12] was inactive. In data set [4], the Activity entry is reported as “Non-Toxic”.
As for `COc1ccc2[nH]cc(CCNC(C)=O)c2c1` [MELATONIN], the outcome in [3], in [16], in data set [17], in [18], in data set [19] and in data set [12] was inactive. Further, the Activity result in data set [4] is “Non-Toxic”.
As to `COc1ccc2[nH]cc(CCNC(=O)CCCCCCNC(=O)Oc3ccc4c(c3)CN3CCc5ccccc5C3N4C)c2c1` (stereo not given), the IC50 was 102 nM in data set [1] (read-out: IC50) and 204 nM in data set [1] (read-out: pIC50 (converted)). Also, in [2], the inhibition was determined as 6.5%. Also, the result in data set [3], in [26], in [27] and in [12] was inactive. Also, the Activity entry in data set [4], in [8] and in data set [9] was “Non-Toxic” throughout. Besides, the outcome in [20], in [21], in [7], in data set [22], in [23] and in [24] was Active. The result in data set [25], in data set [13] and in data set [14] was Active. The same compound gave a T1/2 in data set [15] of 3 h.
For the compound `Cc1c(C)c2c(c(C)c1O)CCC(C)(C(=O)NCCCCNC(=O)Oc1ccc3c(c1)CN1CCc4ccccc4C1N3C)O2` (stereo not given), the IC50 in data set [1] (read-out: IC50) came to 791 nM. Further, the inhibition in [2] is 15.2%.
Take `CN1c2ccc(OC(=O)NCCCCNC(=O)/C=C/c3ccccc3)cc2CN2CCc3ccccc3C21` (stereo not given): the IC50 in data set [1] (read-out: IC50) turned out to be 221 nM. Besides, the inhibition in data set [2] came to 6.1%.
